From US7629341B2, “Human ADAM-10 inhibitors” (Symphony Evolution, Inc., priority 2003, dated 2009)
pIC50: −log10 of the molar value.

Columns and labels:
MMP-3 (Stromelysin-1) = MMP-3 (Stromelysin-1) (Homo sapiens, UniProt P08254); assay: In vitro metalloprotease inhibition, MMP-3; format: biochemical
Source text: (§1) Blank cells indicate lack of data only.

[1] = target: T1, MMP-2 (72 kDa gelatinase, gelatinase A) (Homo sapiens, UniProt P08253); assay: In vitro metalloprotease inhibition, MMP-2; format: biochemical
T1 sequence (P08253 110-660): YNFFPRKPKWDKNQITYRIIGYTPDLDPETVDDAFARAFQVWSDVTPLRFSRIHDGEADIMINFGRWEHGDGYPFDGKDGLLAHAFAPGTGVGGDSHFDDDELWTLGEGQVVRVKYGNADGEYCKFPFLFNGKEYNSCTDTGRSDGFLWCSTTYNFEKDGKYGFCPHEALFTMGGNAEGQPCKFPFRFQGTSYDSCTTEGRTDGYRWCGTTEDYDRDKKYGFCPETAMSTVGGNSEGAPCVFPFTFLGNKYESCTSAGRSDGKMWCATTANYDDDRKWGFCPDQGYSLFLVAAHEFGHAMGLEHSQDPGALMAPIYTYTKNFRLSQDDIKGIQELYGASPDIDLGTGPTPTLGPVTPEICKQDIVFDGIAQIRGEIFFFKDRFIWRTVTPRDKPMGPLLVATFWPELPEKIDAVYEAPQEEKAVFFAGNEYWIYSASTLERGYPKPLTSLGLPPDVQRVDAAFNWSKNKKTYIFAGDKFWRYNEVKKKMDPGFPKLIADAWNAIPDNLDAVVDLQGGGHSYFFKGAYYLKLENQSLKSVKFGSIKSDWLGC

[2] = target: T2, MMP-1 (Fibroblast collagenase) (Homo sapiens, UniProt P03956); assay: In vitro metalloprotease inhibition, MMP-1; format: biochemical
T2 sequence (P03956 100-469): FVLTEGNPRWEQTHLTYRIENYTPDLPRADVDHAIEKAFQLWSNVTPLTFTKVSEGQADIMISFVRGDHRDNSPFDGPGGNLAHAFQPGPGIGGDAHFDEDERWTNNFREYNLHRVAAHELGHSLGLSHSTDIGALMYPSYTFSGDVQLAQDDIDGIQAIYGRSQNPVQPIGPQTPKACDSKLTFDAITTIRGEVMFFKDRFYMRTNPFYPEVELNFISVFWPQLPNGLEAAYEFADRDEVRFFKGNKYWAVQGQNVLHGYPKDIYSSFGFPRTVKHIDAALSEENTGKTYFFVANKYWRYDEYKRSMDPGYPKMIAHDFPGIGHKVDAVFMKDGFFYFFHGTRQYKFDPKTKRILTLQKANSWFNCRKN
Source text: as §1

MMP-13 (collagenase-3) = MMP-13 (collagenase-3) (Homo sapiens, UniProt P45452); assay: In vitro metalloprotease inhibition, MMP-13; format: biochemical
ADAM-10 = target: T3, ADAM-10 (UniProt O14672); assay: ADAM-10 enzyme assay, cleavage of a fluorogenic 10-residue peptide; format: biochemical, mouse or human (mADAM-10 or hADAM-10); details: in vitro;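 note: mouse or human ADAM-10 at 5 nM active enzyme, pH 8.0 HEPES buffer with CaCl2 and NP-40, compounds titrated 100 µM down to 0.5 nM, fluorescence read after 16 h at room temperature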
T3 sequence (O14672 1-748): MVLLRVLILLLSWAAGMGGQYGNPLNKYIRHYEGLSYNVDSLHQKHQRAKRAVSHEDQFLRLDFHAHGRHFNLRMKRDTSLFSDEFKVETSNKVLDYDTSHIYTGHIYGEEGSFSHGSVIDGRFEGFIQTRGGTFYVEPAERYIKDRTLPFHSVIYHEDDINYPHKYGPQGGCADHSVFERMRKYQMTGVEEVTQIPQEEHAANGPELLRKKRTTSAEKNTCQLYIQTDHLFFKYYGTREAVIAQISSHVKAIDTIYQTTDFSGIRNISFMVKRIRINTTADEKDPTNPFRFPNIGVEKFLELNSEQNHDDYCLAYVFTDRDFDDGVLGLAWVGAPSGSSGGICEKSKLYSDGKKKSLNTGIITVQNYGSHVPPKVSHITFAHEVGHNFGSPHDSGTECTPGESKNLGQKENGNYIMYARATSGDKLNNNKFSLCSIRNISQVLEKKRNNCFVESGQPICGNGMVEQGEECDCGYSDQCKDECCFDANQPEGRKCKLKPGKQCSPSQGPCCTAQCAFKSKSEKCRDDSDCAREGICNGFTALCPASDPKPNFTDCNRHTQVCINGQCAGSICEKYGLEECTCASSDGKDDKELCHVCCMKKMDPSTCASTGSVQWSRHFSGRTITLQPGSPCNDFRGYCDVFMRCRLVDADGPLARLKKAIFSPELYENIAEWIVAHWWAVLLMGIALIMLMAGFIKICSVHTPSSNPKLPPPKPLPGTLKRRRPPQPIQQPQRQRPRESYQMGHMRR
Procedure: mADAM-10 or hADAM-10 activity was measured as the ability to cleave a 10-residue peptide (DABCYL-Leu-Leu-Ala-Gln-Lys-*-LeuArg-Ser-Ser-Arg-EDANS). […] Enzyme was diluted to a final active concentration of 5 nM in Buffer A (50 mM HEPES 8.0, 100 mM NaCl, 1 mM CaCl2 and 0.01% NP-40). Serial dilutions for compounds were performed ranging from 100 μM to 0.5 nM using a Beckman Biomek 2000 in polypropylene plates (Greiner). […] This reaction was incubated for 16 hr at RT and fluorescence was read using identical conditions.

Sequence of MMP-3 (Stromelysin-1) (P08254 100-477, species assumed): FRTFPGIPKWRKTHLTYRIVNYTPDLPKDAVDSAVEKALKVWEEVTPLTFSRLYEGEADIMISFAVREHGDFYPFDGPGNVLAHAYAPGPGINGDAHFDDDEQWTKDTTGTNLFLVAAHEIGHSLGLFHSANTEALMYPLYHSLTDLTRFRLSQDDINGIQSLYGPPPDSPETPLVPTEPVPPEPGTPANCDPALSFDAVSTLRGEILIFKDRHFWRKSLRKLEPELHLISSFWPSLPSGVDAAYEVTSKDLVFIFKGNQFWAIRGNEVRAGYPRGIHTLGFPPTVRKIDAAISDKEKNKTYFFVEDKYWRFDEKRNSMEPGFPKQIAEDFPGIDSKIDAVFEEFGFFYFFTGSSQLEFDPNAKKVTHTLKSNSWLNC

Compound	pIC50 (MMP-3 (Stromelysin-1))	pIC50 [1]	pIC50 [2]	pIC50 (MMP-13 (collagenase-3))	pIC50 (ADAM-10)
O=C(O)CN1CCN(S(=O)(=O)c2cc(F)c(Oc3ccc(Cl)cc3)c(F)c2)[C@@H](C(=O)NO)C1 [Entry 63]	4.70 to 6.00	6.00 to 7.30	< 4.70	6.00 to 7.30	6.00 to 7.30
CC(C)(C)OC(=O)N1CCN(S(=O)(=O)c2cc(F)c(Oc3ccc(F)cc3)c(F)c2)[C@@H](C(=O)NO)C1 [Entry 9]	4.70 to 6.00	> 7.30	4.70 to 6.00	4.70 to 6.00	> 7.30
C=CCN1CCN(S(=O)(=O)c2cc(F)c(Oc3ccc(Cl)cc3)c(F)c2)[C@@H](C(=O)NO)C1 [Entry 62]	4.70 to 6.00	> 7.30	< 4.70	> 7.30	6.00 to 7.30
O=C(NO)[C@H]1CN(C(=O)c2ccc(-c3ccccc3)cc2)CCN1S(=O)(=O)c1cc(F)c(Oc2ccc(Cl)cc2)c(F)c1 [Entry 51]	4.70 to 6.00	6.00 to 7.30	4.70 to 6.00	6.00 to 7.30	6.00 to 7.30
CN(C)c1cccc2c(S(=O)(=O)N3CCN(S(=O)(=O)c4cc(F)c(Oc5ccc(Cl)cc5)c(F)c4)[C@@H](C(=O)NO)C3)cccc12 [Entry 60]	4.70 to 6.00	> 7.30	< 4.70	> 7.30	6.00 to 7.30
O=C(NO)[C@H]1CN(C(=O)N2CCOCC2)CCN1S(=O)(=O)c1ccc(-c2cccc(F)c2)nc1 [Entry 58]	6.00 to 7.30	> 7.30	6.00 to 7.30	> 7.30	> 7.30
O=C(NO)[C@H]1CN(C(=O)N2CCOCC2)CCN1S(=O)(=O)c1cc(F)c(Oc2ccc(F)cc2)c(F)c1 [Entry 12]	6.00 to 7.30	> 7.30	4.70 to 6.00	> 7.30	> 7.30
O=C(NO)[C@H]1CN(C(=O)OCc2ccccc2)CCN1S(=O)(=O)c1cc(F)c(Oc2ccc(Cl)cc2)c(F)c1 [Entry 32]	6.00 to 7.30	> 7.30	4.70 to 6.00	> 7.30	> 7.30
CN1CCC(OC(=O)N2CCN(S(=O)(=O)c3cc(F)c(Oc4ccc(Cl)cc4)c(F)c3)[C@@H](C(=O)NO)C2)CC1 [Entry 22]	6.00 to 7.30	> 7.30	4.70 to 6.00	> 7.30	> 7.30
O=C(NO)[C@H]1CN(C(=O)NCCN2CCCC2)CCN1S(=O)(=O)c1cc(F)c(Oc2ccc(Cl)cc2)c(F)c1 [Entry 17]	6.00 to 7.30	> 7.30	4.70 to 6.00	> 7.30	> 7.30
CN(C)C(=O)CN1CCN(S(=O)(=O)c2cc(F)c(Oc3ccc(Cl)cc3)c(F)c2)[C@@H](C(=O)NO)C1 [Entry 20]	4.70 to 6.00	> 7.30	< 4.70	> 7.30	> 7.30
CN1CCN(CC(=O)N2CCN(S(=O)(=O)c3cc(F)c(Oc4ccc(Cl)cc4)c(F)c3)[C@@H](C(=O)NO)C2)CC1 [Entry 24]	4.70 to 6.00	> 7.30	< 4.70	> 7.30	> 7.30
O=C(NO)[C@H]1CN(S(=O)(=O)CCN2CCCCC2)CCN1S(=O)(=O)c1cc(F)c(Oc2ccc(Cl)cc2)c(F)c1 [Entry 53]	6.00 to 7.30	> 7.30	6.00 to 7.30	> 7.30	> 7.30
O=C(NO)[C@H]1CN(S(=O)(=O)c2cccc3cnccc23)CCN1S(=O)(=O)c1cc(F)c(Oc2ccc(Cl)cc2)c(F)c1 [Entry 48]	6.00 to 7.30	> 7.30	< 4.70	> 7.30	> 7.30
O=C(NO)[C@H]1CN(C(=O)OCCN2CCCCC2)CCN1S(=O)(=O)c1cc(F)c(Oc2ccc(Cl)cc2)c(F)c1 [Entry 27]	6.00 to 7.30	> 7.30	4.70 to 6.00	> 7.30	> 7.30
O=C(NO)[C@H]1CN(C(=O)CN2CCOCC2)CCN1S(=O)(=O)c1cc(F)c(Oc2ccc(Cl)cc2)c(F)c1 [Entry 25]	6.00 to 7.30	> 7.30	< 4.70	> 7.30	> 7.30
O=C(NO)[C@H]1CN(C(=O)C(=O)N2CCCCC2)CCN1S(=O)(=O)c1cc(F)c(Oc2ccc(Cl)cc2)c(F)c1 [Entry 35]	6.00 to 7.30	> 7.30	4.70 to 6.00	> 7.30	> 7.30
O=C(NO)[C@H]1CN(C(=O)c2ccncc2)CCN1S(=O)(=O)c1cc(F)c(Oc2ccc(Cl)cc2)c(F)c1 [Entry 42]	4.70 to 6.00	> 7.30	4.70 to 6.00	> 7.30	> 7.30

Results, then the compound that gave them:

pIC50 (MMP-3 (Stromelysin-1))	pIC50 [1]	pIC50 [2]	pIC50 (MMP-13 (collagenase-3))	pIC50 (ADAM-10)	Compound
6.00 to 7.30	> 7.30	< 4.70	> 7.30	> 7.30	O=C(NO)[C@H]1CN(C(=O)Cc2cccnc2)CCN1S(=O)(=O)c1cc(F)c(Oc2ccc(Cl)cc2)c(F)c1 [Entry 47]
6.00 to 7.30	> 7.30	4.70 to 6.00	> 7.30	> 7.30	CCOC(=O)N1CCN(S(=O)(=O)c2cc(F)c(Oc3ccc(F)cc3)c(F)c2)[C@@H](C(=O)NO)C1 [Entry 13]
> 7.30	> 7.30	6.00 to 7.30	> 7.30	> 7.30	O=C(NO)[C@H]1CN(C(=O)N2CCOCC2)CCN1S(=O)(=O)c1ccc(Oc2ccc(F)cc2)c(F)c1 [Entry 8]
6.00 to 7.30	> 7.30	4.70 to 6.00	> 7.30	> 7.30	O=C(CN1CCOCC1)NC(=O)N1CCN(S(=O)(=O)c2cc(F)c(Oc3ccc(Cl)cc3)c(F)c2)[C@@H](C(=O)NO)C1 [Entry 46]
> 7.30	> 7.30	6.00 to 7.30	> 7.30	> 7.30	COCCOC(=O)N1CCN(S(=O)(=O)c2ccc(Oc3ccc(Cl)cc3)c(F)c2)[C@@H](C(=O)NO)C1 [Entry 4]
> 7.30	> 7.30	6.00 to 7.30	> 7.30	> 7.30	CN1CCN(C(=O)NS(=O)(=O)N2CCN(S(=O)(=O)c3cc(F)c(Oc4ccc(Cl)cc4)c(F)c3)[C@@H](C(=O)NO)C2)CC1 [Entry 39]
> 7.30	> 7.30	> 7.30	> 7.30	> 7.30	O=C(NO)[C@H]1CN(C(=O)N2CCOCC2)CCN1S(=O)(=O)c1ccc(Oc2ccc(F)cc2)cc1 [Entry 2]
> 7.30	> 7.30	> 7.30	> 7.30	> 7.30	COCCOC(=O)N1CCN(S(=O)(=O)c2ccc(Oc3ccc(F)cc3)cc2)[C@@H](C(=O)NO)C1 [Entry 1]
> 7.30	> 7.30	6.00 to 7.30	> 7.30	> 7.30	O=C(NO)[C@H]1CN(C(=O)N2CCOCC2)CCN1S(=O)(=O)c1ccc(Oc2ccc(Cl)cc2)c(F)c1 [Entry 6]
> 7.30	> 7.30	6.00 to 7.30	> 7.30	> 7.30	COCCOC(=O)N1CCN(S(=O)(=O)c2ccc(Oc3ccc4c(c3)CCCC4)nc2)[C@@H](C(=O)NO)C1 [Entry 64]
